Data on 29 compounds can be found in patent publication US10898504B2, “Substituted nucleoside analogues for use as PRMT5 inhibitors” (Janssen Pharmaceutica NV, priority 2016, dated 2021).

The target of one assay is T1, PRMT5-MEP50 enzyme (Homo sapiens, UniProt O14744).
T1 construct: One virus expresses full length human PRMT5 with Flag-tag at N-terminus
Briefly: In vitro assay (Assay 1): PRMT5-MEP50 high throughput mass spectrometer assay, inhibition of SAH formation. Type of assay: biochemical. As to conditions: individual measurements shown, read-out: pIC50 Assay 1 (converted). The text has this: EXPERIMENTAL PROCEDURES IN VITRO ASSAY (ASSAY 1)
PRMT5-MEP50 enzyme was purchased from Charles River (Argenta). The enzyme complex was produced in insect cells (Sf9) infected simultaneously with two baculoviruses. One virus expresses full length human PRMT5 with Flag-tag at N-terminus, the second virus expresses full length MEP50 with His6-TEV cleavage at N-terminus. The protein was affinity purified using anti-Flag (M2) beads eluted with 3×FLAG peptide, followed by His-Select eluted with 0.5M imidazole. Eluted protein was then dialysed against tris-buffered saline (TBS) (pH 8.0) containing 20% glycerol and 3 mM dithiothreitol (DTT).
Full-length untagged human recombinant histone H2A (residues 1-130, Genbank Accession #NM_021052, MW=14.1 kDa) expressed in E. coli was purchased from Reaction Biology Corporation, Cat #HMT-11-146. Reagents used for making reaction buffer or stopping reaction were purchased including Tris base (Sigma Cat #T-1503), NaCl (Sigma Cat #RGF-3270), MgCl2 (Sigma Cat #M0250), DTT (Invitrogen Cat #15508-013) and Formic Acid (Riedel deHaen, Cat #33015)
High Throughput Mass Spectrometer Assay
PRMT5 catalyzes the sequential methylations of the terminal nitrogen atoms on the guanidine groups of arginine residues within proteins using co-substrate S-adenosyl-L-methionine (AdoMet, SAM), forming mono-methyl (MMA), symmetric-dimethyl arginine (sDMA) and S-adenosyl-L-homocysteine (AdoHcy, SAH). The enzyme activity was determined by following the product SAH formation using high throughput mass spectrometry (Agilent Rapidfire 300 System coupled to a Sciex 4000 series QTrapm triple-quad MS/MS). The reaction buffer was 20 mM Tris-HC, pH 8.5, 50 mM NaCl, 5 mM MgCl2 and 1 mM DTT. The reaction activity was stopped using 1% formic acid (final concentration).
The IC50 Studies were performed using eleven point dosing series made for each compound by serially diluted 1:2 in dimethyl sulfoxide (DMSO), with point 12 being a DMSO control. Compounds were first spotted to plates, and followed by addition of 2 μM SAM and 0.6 μM H2A (histone H2A) solution mixture. The same volume of enzyme solution was added to initiate the enzymatic reactions. The final concentrations of the reaction are at 1 μM SAM, 0.3 μM H2A and 10 nM enzyme. The reaction was incubated at 30° C. for 60 minutes (min) and then quenched by addition of formic acid to a final concentration of 1%. The inhibitions of SAH formation in the presence of compounds were calculated as a percentage of the control relative to the uninhibited reaction as a function of inhibitor concentration. The data were fit as follows: Y=Bottom+(Top−Bottom)/(1+10^((log IC50−X)*h))
where IC50 is the inhibitor concentration (same unit as X) at 50% inhibition and h is the Hill slope. Y is percent of inhibition, X is log of compound concentration. Bottom and Top are the plateaus in same units as Y.

The test system of a further assay is A549 cells. As to the kind of experiment: PD assay (Assay 2): inhibition of nuclear symmetric Arginine dimethylation (SYM10 immunohistochemistry) in A549 cells. Type of assay: cell-based. As to conditions: Homo sapiens, A549, PD assay in A549 cells, individual measurements shown, read-out: pIC50 Assay 2 (converted). The procedure:
EXPERIMENTAL PROCEDURE PD ASSAY (ASSAY 2)
A549 cells (ATCC, Cat #CCL-185) were cultured in Dulbecco's Modified Eagle's Medium (DMEM) (Sigma, Cat #D5796), supplemented with 10% Fetal Calf Serum (FCS)(HyClone™, Cat #SV30160.03), 100 mM Sodium Pyruvate (Sigma, Cat #S8636), 200 mM L-Glutamine (Sigma, Cat #G7513) and 50 mg/mL Gentamycing (Gibco, Cat #15750-037).
Reagents used for buffers were purchased: Dulbecco's phosphate buffered saline (DPBS) without Ca/Mg (Sigma, Cat #D8537), phosphate buffered saline (PBS) 10× (Roche, Cat #11 666 789 001), Formalin solution 10% (Sigma, HT50-1-128-4L), MeOH 100% (Sigma, Cat #32213-2.5L), Triton X-100 (Acros, Cat #215680010), Bovine Serum Albumin (BSA) (Sigma, Cat #A2153), Alexa fluor 488 goat anti-rabbit antibody (Life Technologies, Cat #A11034), HCS CellMask Deep Red Stain (Life Technologies, Cat #H32721), Hoechst Stain (Life Technologies, Cat #33258), Anti-dimethyl-Arginine, sym (SYM10) antibody (Millipore, 07-412).
Immunohistochemistry Procedure
Cells were plated at 400 cells/40 μL/well in 384 well black plates μclear bottom (Perkin Elmer) and overnight incubated at 37° C., 5% CO2. The IC50 Studies were performed using nine point dosing series ranging from 10 μM to […] for each compound. 80 nL of the respective dilution of the compounds was added using the Labcyte POD 810 (Labcyte) reaching a final DMSO concentration of 0.2% in cell culture. After an incubation period of 48 h at 37° C. and 5% CO2, cells were fixed in 10% formalin solution for 15 min at r.t. and 20 min in ice-cold MeOH, after which they were washed 3× in DPBS. Subsequently, the cells were blocked for 1 h in blocking buffer (PBS+1% BSA and 0.5% Triton X-100) and incubated overnight at 4° C. with the SYM10 antibody diluted 1/2000 in blocking buffer. The cells were washed 3× with washing buffer (PBS+0.1% Triton X-100) and incubated with the Alexa fluor 488 goat anti-rabbit antibody diluted 1/200 in blocking buffer for 1 h at r.t. Subsequently, they were washed 3× with washing buffer and incubated for 30 min at r.t. with PBS containing a 1/5000 dilution of Hoechst Stain and a 1/5000 dilution of the HCS CellMask Deep Red Stain. After a final wash with PBS, the plates were imaged using the 10×W lens of the Opera® system (Perkin Elmer Life Sciences) using following settings (values in nm):
In the above equations, the following variable names are use: […]
In the above equations, the following controls were used for normalization: […]
Low control: minimum level of symmetrically dimethylated Arginines (cells treated with reference compound at 10 μM).
High control: maximum level of symmetrically dimethylated Arginines (DMSO treated cells).
IC50 and pIC50 (−log IC50) values were calculated using the appropriate software.
pIC50 values (Co. No. means compound number; n.d. means not determined).

T1 sequence (O14744 whole entry): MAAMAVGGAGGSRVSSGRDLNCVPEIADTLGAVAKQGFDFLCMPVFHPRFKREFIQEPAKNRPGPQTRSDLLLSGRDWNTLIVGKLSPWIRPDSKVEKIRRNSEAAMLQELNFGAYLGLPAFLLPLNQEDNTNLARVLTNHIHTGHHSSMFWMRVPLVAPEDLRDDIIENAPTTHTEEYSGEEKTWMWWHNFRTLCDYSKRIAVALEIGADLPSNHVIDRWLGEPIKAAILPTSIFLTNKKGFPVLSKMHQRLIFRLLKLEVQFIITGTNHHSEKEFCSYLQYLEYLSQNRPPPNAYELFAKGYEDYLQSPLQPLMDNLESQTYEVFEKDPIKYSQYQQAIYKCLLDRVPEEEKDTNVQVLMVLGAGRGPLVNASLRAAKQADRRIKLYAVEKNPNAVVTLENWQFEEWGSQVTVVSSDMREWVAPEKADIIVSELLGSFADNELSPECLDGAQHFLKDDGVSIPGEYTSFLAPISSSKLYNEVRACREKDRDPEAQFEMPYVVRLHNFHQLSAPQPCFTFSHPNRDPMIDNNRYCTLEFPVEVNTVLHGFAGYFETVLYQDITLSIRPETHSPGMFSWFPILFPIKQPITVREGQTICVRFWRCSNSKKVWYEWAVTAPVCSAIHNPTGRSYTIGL
T1 sequence (Q9BQA1 whole entry partner): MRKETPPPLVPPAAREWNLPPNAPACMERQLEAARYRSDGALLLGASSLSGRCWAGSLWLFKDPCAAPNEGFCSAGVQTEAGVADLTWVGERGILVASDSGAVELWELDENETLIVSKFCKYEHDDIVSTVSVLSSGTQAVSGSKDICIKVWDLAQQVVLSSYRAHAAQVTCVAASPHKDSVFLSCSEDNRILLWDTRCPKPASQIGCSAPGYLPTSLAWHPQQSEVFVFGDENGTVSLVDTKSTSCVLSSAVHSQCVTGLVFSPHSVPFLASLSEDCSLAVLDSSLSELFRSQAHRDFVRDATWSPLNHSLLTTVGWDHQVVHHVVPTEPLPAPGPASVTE

For the compound `Nc1ncnc2c1ncn2[C@@H]1O[C@H](CN2CCC3(CCCN3)C2)[C@@H](O)[C@H]1O` (stereo partly shown) [Compound 78], the values for the IC50 at PRMT5-MEP50 enzyme and with A549 cells were 2.82 µM and above 10 µM, respectively.
The corresponding values for `CN(C)CC[C@@H]1CC(F)(F)CN1C(=O)[C@H]1O[C@@H](c2ccc3c(N)ncnn23)[C@H](O)[C@@H]1O` [Compound 162] are 3.8 µM and above 20 µM.
Turning to `CN1CCC2(CCC/C2=C\[C@H]2C[C@@H](n3ccc4c(N)ncnc43)[C@H](O)[C@@H]2O)CC1` [Compound 207], the IC50 is 0.00501 µM on PRMT5-MEP50 enzyme and 0.0525 µM in the assay on A549 cells.
For the compound `CN1CC2(CCCN(C[C@H]3O[C@@H](n4cnc5c(N)ncnc54)[C@H](O)[C@@H]3O)C2)C1` [Compound 8], the values for the IC50 at PRMT5-MEP50 enzyme and in the assay with A549 cells were 0.155 µM and 1.51 µM, respectively.
On to `COCCN1CCC2(CCCN2C[C@H]2O[C@@H](n3ccc4c(N)ncnc43)[C@H](O)[C@@H]2O)CC1` [Compound 194], for which the IC50 is 0.427 µM on PRMT5-MEP50 enzyme and around 5.62 µM in the assay on A549 cells.
The corresponding values for `Nc1ncnc2c1ncn2[C@@H]1O[C@H](CN2CCC23CCNCC3)[C@@H](O)[C@H]1O` [Compound 81] are 0.355 µM and 8.13 µM.
In the same order, the values of `Nc1ncnc2c1ccn2[C@@H]1O[C@H](CN2CC(F)(F)CC23CCN(CCc2ccc(F)cc2)CC3)[C@@H](O)[C@H]1O` [Compound 183] are 0.0224 µM and around 0.24 µM.
In the same order, the values of `Nc1ncnc2c1ccn2[C@@H]1O[C@H](CN2CCCC3(CNC3)C2)[C@@H](O)[C@H]1O` [Compound 45] are 0.0832 µM and around 0.741 µM.
Turning to `CN1CCCC2(C1)CN(C[C@H]1O[C@@H](n3cnc4c(N)ncnc43)[C@H](O)[C@@H]1O)C2` [Compound 12], the IC50 at PRMT5-MEP50 enzyme is 67.6 µM; in the assay on A549 cells it was above 10 µM.
In the same order, the values of `Nc1ncnc2c1ccn2[C@@H]1O[C@H](CN2CCCC23CCN(Cc2ccc(F)cc2)CC3)[C@@H](O)[C@H]1O` [Compound 171] are 1.62 µM and around 4.07 µM.
In the same order, the values of `Nc1ncnc2c1ncn2[C@@H]1O[C@H](CN2CCC23CNC3)[C@@H](O)[C@H]1O` [Compound 89] are 2.75 µM and above 10 µM.
The corresponding values for `CC(C)CCN1CCC2(CC1)CC(F)(F)CN2C[C@H]1O[C@@H](n2ccc3c(N)ncnc32)[C@H](O)[C@@H]1O` [Compound 184] are 0.0676 µM and around 1.48 µM.
Take `CN1CCC2(CC1)CC(F)(F)CN2CC1C[C@@H](n2ccc3c(N)ncnc32)[C@H](O)[C@@H]1O` (stereo partly shown) [Compound 123]: the IC50 on PRMT5-MEP50 enzyme is 0.0224 µM; with A549 cells it was 0.162 µM.
The corresponding values for `CN1CC2(CCN2C[C@H]2O[C@@H](n3cnc4c(N)ncnc43)[C@H](O)[C@@H]2O)C1` [Compound 18] are 8.51 µM and above 10 µM.
The corresponding values for `CN(C)C[C@@H]1COCCN1C[C@H]1O[C@@H](c2ccc3c(N)ncnn23)[C@H](O)[C@@H]1O` [Compound 129] are above 10 µM and above 20 µM.
As to `CN1CCC2(CCCN2C[C@H]2O[C@@H](n3cc(I)c4c(N)ncnc43)[C@H](O)[C@@H]2O)CC1` [Compound 180], the IC50 was 0.0102 µM at PRMT5-MEP50 enzyme and 0.269 µM with A549 cells.
Take `NCCC1CN(C[C@H]2O[C@@H](n3ccc4c(N)ncnc43)[C@H](O)[C@@H]2O)CCO1` (stereo partly shown) [Compound 47]: the values for the IC50 on PRMT5-MEP50 enzyme and in the assay with A549 cells were 0.692 µM and above 10 µM, respectively.
In the same order, the values of `NC[C@@H]1COCCN1C[C@H]1O[C@@H](n2ccc3c(N)ncnc32)[C@H](O)[C@@H]1O` [Compound 72] are 0.0537 µM and around 3.55 µM.
The corresponding values for `Nc1ncnc2c1ncn2[C@@H]1O[C@H](CN2CC3(CCCNC3)C2)[C@@H](O)[C@H]1O` [Compound 79] are 21.4 µM and above 10 µM.
In the same order, the values of `Nc1ncnc2c1ccn2[C@@H]1O[C@H](CN2CCCC23CCN(Cc2cccnn2)CC3)[C@@H](O)[C@H]1O` [Compound 199] are 0.891 µM and 1.86 µM.
Turning to `CN1CCC2(CCCN2C[C@H]2O[C@@H](n3ccc4c(N)nccc43)[C@H](O)[C@@H]2O)CC1` [Compound 66], the IC50 at PRMT5-MEP50 enzyme is 0.603 µM; in the assay on A549 cells, 6.76 µM.
In the same order, the values of `CC(=O)O[C@H]1[C@@H](O)[C@H](n2ccc3c(N)ncnc32)O[C@@H]1CN1CCCC12CCN(C)CC2` [Compound 99] are 0.174 µM and 0.204 µM.
The corresponding values for `CN1CCC2(CC1)CN(C[C@H]1O[C@@H](n3cnc4c(N)ncnc43)[C@H](O)[C@@H]1O)C2` [Compound 90] are 70.8 µM and above 10 µM.
In the same order, the values of `CCN1CCC2(CC1)CC(F)(F)CN2C[C@H]1O[C@@H](c2ccc3c(N)ncnn23)[C@H](O)[C@@H]1O` [Compound 146] are 3.98 µM and 4.68 µM.
For `CC(C)C(=O)O[C@@H]1[C@@H](CN2CC(F)(F)CC23CCN(C)CC3)C[C@@H](n2ccc3c(N)ncnc32)[C@@H]1OC(=O)C(C)C` [Compound 106], the IC50 is above 10 µM at PRMT5-MEP50 enzyme and 19.5 µM in the assay with A549 cells.
In the same order, the values of `Nc1ncnc2c1ncn2[C@@H]1O[C@H](CN2CC3(CCNC3)C2)[C@@H](O)[C@H]1O` [Compound 84] are 77.6 µM and above 10 µM.
In the same order, the values of `NC[C@H]1COCCN1C[C@H]1O[C@@H](n2ccc3c(N)ncnc32)[C@H](O)[C@@H]1O` [Compound 49] are 0.12 µM and around 5.13 µM.
The corresponding values for `CNC(=O)CN1CCC2(CCCN2C[C@H]2O[C@@H](n3ccc4c(N)ncnc43)[C@H](O)[C@@H]2O)CC1` [Compound 197] are 6.46 µM and above 10 µM.
Turning to `Nc1ncnc2c1ccn2[C@@H]1O[C@H](CN2CCCC23CCN(CC(F)(F)F)CC3)[C@@H](O)[C@H]1O` [Compound 202], the IC50 at PRMT5-MEP50 enzyme is 2 µM; in the assay on A549 cells, around 4.68 µM.
